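All cell lines were grown in 96-well plates and treated with compound for 48 hours. GI50 marks 50% less growth.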 The source made the active and inactive calls. Rule as the data show it: active = GI50 up to about 1.1 µM and inactive = higher.
Experiments:
Assay in all cases: growth of human tumour cells (NCI), 48 h
CAKI-1 = tested on: CAKI-1
HOP-62 = tested on: HOP-62
NCI-H23 = tested on: NCI-H23
UO-31 = tested on: UO-31
U-251 = tested on: U-251
M14 = tested on: M14
SK-MEL-2 = tested on: SK-MEL-2
SW-620 = tested on: SW-620
NCI-H460 = tested on: NCI-H460
MDA-MB-435 = tested on: MDA-MB-435
UACC-62 = tested on: UACC-62
MCF7 = tested on: MCF7
SF-268 = tested on: SF-268
Hs-578T = tested on: Hs-578T
HCT-116 = tested on: HCT-116
HCT-15 = tested on: HCT-15
A498 = tested on: A498
SNB-75 = tested on: SNB-75
A549 = tested on: A549
PC-3 = tested on: PC-3

SMILES	GI50 (CAKI-1)	GI50 (HOP-62)	GI50 (NCI-H23)	GI50 (UO-31)	GI50 (U-251)	GI50 (M14)	GI50 (SK-MEL-2)	GI50 (SW-620)	GI50 (NCI-H460)	GI50 (MDA-MB-435)	GI50 (UACC-62)	GI50 (MCF7)	GI50 (SF-268)	GI50 (Hs-578T)	GI50 (HCT-116)	GI50 (HCT-15) [µM]	GI50 (A498)	GI50 (SNB-75)	GI50 (A549)	GI50 (PC-3)
c1cc(C2N3CCCN2CC3)ccn1 (stereo not given)	> 100 µM (inactive)	> 100 µM (inactive)	68.2 µM (inactive)	> 100 µM (inactive)	58.3 µM (inactive)	61.1 µM (inactive)	> 100 µM (inactive)	41.8 µM (inactive)	83.6 µM (inactive)	25.5 µM (inactive)	> 100 µM (inactive)	37.8 µM (inactive)	8.38 µM (inactive)	22.8 µM (inactive)	36.9 µM (inactive)	> 100	> 100 µM (inactive)	> 100 µM (inactive)	> 100 µM (inactive)	> 100 µM (inactive)
O=C(CC(O)(C(F)(F)F)C(F)(F)F)c1cc(CC(=O)C(O)(C(F)(F)F)C(F)(F)F)cc(CC(=O)C(O)(C(F)(F)F)C(F)(F)F)c1	1.75 µM (inactive)	1.46 µM (inactive)	0.867 µM (active)	1.25 µM (inactive)	1.54 µM (inactive)	2.58 µM (inactive)	1.75 µM (inactive)	2.06 µM (inactive)	0.454 µM (active)	1 µM (active)	1.11 µM (active)	1.86 µM (inactive)	2.67 µM (inactive)	2.05 µM (inactive)	0.76 µM (active)	0.971	1.88 µM (inactive)	1.91 µM (inactive)	1.84 µM (inactive)	0.78 µM (active)
COc1ccccc1C1C2=C(COC2=O)OC(C)(C)Oc2cc3c(cc21)OCO3 (stereo not given)	3.33 µM (inactive)	4.02 µM (inactive)	3.89 µM (inactive)	10 µM (inactive)	3.85 µM (inactive)	3.18 µM (inactive)	4.06 µM (inactive)	3.67 µM (inactive)	3.6 µM (inactive)	0.564 µM (active)	3.37 µM (inactive)	3.15 µM (inactive)	7.4 µM (inactive)	4.6 µM (inactive)	3.75 µM (inactive)	3.23	3.06 µM (inactive)	3.59 µM (inactive)	5.13 µM (inactive)	2.19 µM (inactive)
O=C(/C=C/c1ccc(Cl)cc1)c1ccccc(=O)c1O	0.614 µM (active)	2.65 µM (inactive)	2.71 µM (inactive)	1.51 µM (inactive)	2.26 µM (inactive)	2.87 µM (inactive)	1.75 µM (inactive)	4.38 µM (inactive)	0.461 µM (active)	0.977 µM (active)	1.14 µM (inactive)	2.43 µM (inactive)	3.12 µM (inactive)	4.99 µM (inactive)	0.957 µM (active)	0.341	2.84 µM (inactive)	2.86 µM (inactive)	1.41 µM (inactive)	4.08 µM (inactive)
OC1(c2cccs2)c2cccc(Cl)c2C(O)(c2cccs2)c2c(Cl)cccc21 (stereo not given)	> 100 µM (inactive)	57.9 µM (inactive)	54.6 µM (inactive)	> 100 µM (inactive)	26.6 µM (inactive)	> 100 µM (inactive)	37.2 µM (inactive)	> 100 µM (inactive)	> 100 µM (inactive)	> 100 µM (inactive)	34.3 µM (inactive)	> 100 µM (inactive)	22.3 µM (inactive)	9.84 µM (inactive)	> 100 µM (inactive)	> 100	> 100 µM (inactive)	47.4 µM (inactive)	> 100 µM (inactive)	99.3 µM (inactive)
N#Cc1c(N)nc2c(c1-c1ccc(Br)cc1)CSc1ccccc1-2	14.9 µM (inactive)	50.1 µM (inactive)	29.6 µM (inactive)	33.8 µM (inactive)	34.4 µM (inactive)	41.7 µM (inactive)	27.2 µM (inactive)	83.4 µM (inactive)	25.8 µM (inactive)	19.5 µM (inactive)	21.4 µM (inactive)	19.1 µM (inactive)	33.1 µM (inactive)	22.8 µM (inactive)	18.5 µM (inactive)	25.6	> 100 µM (inactive)	31.4 µM (inactive)	37.2 µM (inactive)	16.7 µM (inactive)
COc1ccc2c(c1)-c1nc(=O)n(CCCN(C)C)c3ccc([N+](=O)[O-])c(c13)N2	0.434 µM (active)	0.675 µM (active)	1.1 µM (active)	0.682 µM (active)	1.43 µM (inactive)	1.08 µM (active)	12.2 µM (inactive)	0.282 µM (active)	0.435 µM (active)	2.6 µM (inactive)	8.87 µM (inactive)	0.448 µM (active)	0.789 µM (active)	1.56 µM (inactive)	0.293 µM (active)	0.897	3.39 µM (inactive)	1.28 µM (inactive)	0.469 µM (active)	0.792 µM (active)
COc1cc2c(/C=C3/C(=O)Nc4cc(C)c(O)cc43)c(Cl)[nH]c2cc1C	2.55 µM (inactive)	2 µM (inactive)	1.26 µM (inactive)	4.31 µM (inactive)	3.9 µM (inactive)	1.86 µM (inactive)	4.98 µM (inactive)	2.83 µM (inactive)	2.51 µM (inactive)	0.368 µM (active)	1.96 µM (inactive)	1.8 µM (inactive)	6.12 µM (inactive)	2.13 µM (inactive)	2.64 µM (inactive)	3.33	13.9 µM (inactive)	2.05 µM (inactive)	4.01 µM (inactive)	3.18 µM (inactive)
COC(=O)c1cc(OC)c(OC)c(OC)c1-c1cc2c(cc1C=O)OCO2	> 10 µM (inactive)	> 10 µM (inactive)	> 10 µM (inactive)	> 10 µM (inactive)	> 10 µM (inactive)	> 10 µM (inactive)	> 10 µM (inactive)	> 10 µM (inactive)	> 10 µM (inactive)	> 10 µM (inactive)	> 10 µM (inactive)	> 10 µM (inactive)	> 10 µM (inactive)	> 10 µM (inactive)	> 10 µM (inactive)	> 10	> 10 µM (inactive)	> 10 µM (inactive)	> 10 µM (inactive)	> 10 µM (inactive)
CC(C)=CCC/C(C)=C/CC/C(C)=C/CSc1ccccc1C(=O)O [SALIRASIB]	22.1 µM (inactive)	16.9 µM (inactive)	18.2 µM (inactive)	> 10 µM (inactive)	20.2 µM (inactive)	20.4 µM (inactive)	14.4 µM (inactive)	35.9 µM (inactive)	17.4 µM (inactive)	20 µM (inactive)	17.7 µM (inactive)	24.8 µM (inactive)	16.6 µM (inactive)	17.8 µM (inactive)	16.7 µM (inactive)	14.7	23.7 µM (inactive)	19.1 µM (inactive)	20.7 µM (inactive)	19.3 µM (inactive)
